Laboratory results from patent publication US8461329B2, “Isoquinoline derivative” (Taisho Pharmaceutical Co., Ltd., priority 2008, dated 2013).
pIC50: −log10 of the molar value.

target: T1, CRTH2 (KB8 cells) (Homo sapiens, UniProt Q9Y5Y4); assay: CRTH2 antagonist test (PGD2-induced intracellular calcium ion concentration increase in KB8 cells); assay type: cell-based; conditions: PGD2 100 nM, Fluo-4 calcium fluorescence, read-out: CRTH2 antagonist activity IC50 value
T1 construct: host or cells: KB8 cells (human CRTH2 expression cell)
T1 sequence (Q9Y5Y4 1-395): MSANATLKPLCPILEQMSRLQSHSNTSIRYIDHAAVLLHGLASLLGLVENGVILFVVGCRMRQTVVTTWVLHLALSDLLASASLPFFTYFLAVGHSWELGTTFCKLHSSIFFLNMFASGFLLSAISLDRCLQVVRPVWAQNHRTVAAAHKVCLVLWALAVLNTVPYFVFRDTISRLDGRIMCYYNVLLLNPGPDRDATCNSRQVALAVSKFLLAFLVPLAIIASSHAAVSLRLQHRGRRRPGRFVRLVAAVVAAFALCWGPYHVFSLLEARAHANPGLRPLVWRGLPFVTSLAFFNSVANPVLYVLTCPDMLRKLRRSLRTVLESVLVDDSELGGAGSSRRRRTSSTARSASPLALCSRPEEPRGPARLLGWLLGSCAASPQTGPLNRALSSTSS
In short: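 Fluo-4-AM-loaded KB8 cells in HBSS with 10 mM HEPES and 1 mM CaCl2 received compound plus PGD2 (final 100 nM); peak fluorescence followed over time. Inhibition was computed against no-compound and unlabelled-PGD2 controls, and IC50 obtained from a dose-response curve.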

pIC50, 8.23:
O=C(O)Cc1cnc(Cc2ccc(C(=O)NCCc3cc4cc(Cl)ccc4[nH]3)cc2)c2ccccc12 [Example 234]

pIC50, 8.18:
O=C(O)Cc1cnc(Cc2ccc(C(=O)NCCC34CC5CC(CC(C5)C3)C4)cc2)c2ccccc12 [Example 240]

same assay, conditions: PGD2 final concentration 100 nM, Fluo-4-AM fluorescence, read-out: antagonist activity (IC50 value, inhibition of calcium ion concentration increase)

pIC50, > 7.30:
Cc1ccc(CCNC(=O)c2ccc(Cc3ncc(CC(=O)O)c4ccccc34)cc2)cc1F [Example 204]
O=C(O)Cc1cnc(Cc2ccc(C(=O)NCCc3ccc4ccccc4c3)cc2)c2ccccc12 [Example 205]
Cc1ccc(CCNC(=O)c2ccc(Cc3ncc(CC(=O)O)c4ccccc34)cc2)c(C)c1 [Example 208]
O=C(O)Cc1cnc(Cc2ccc(C(=O)NCCc3ccc(F)c(Cl)c3)cc2)c2ccccc12 [Example 210]
Cc1cccc(C)c1CCNC(=O)c1ccc(Cc2ncc(CC(=O)O)c3ccccc23)cc1 [Example 217]
O=C(O)Cc1cnc(Cc2ccc(C(=O)NCCc3ccc4c(c3)CCCC4)cc2)c2ccccc12 [Example 218]
O=C(O)Cc1cnc(Cc2ccc(C(=O)NCCc3ccc(Cl)c(F)c3)cc2)c2ccccc12 [Example 221]
O=C(O)Cc1cnc(Cc2ccc(C(=O)NCCc3cc(C(F)(F)F)cc(C(F)(F)F)c3)cc2)c2ccccc12 [Example 222]
CC(C)Oc1ccc(CCNC(=O)c2ccc(Cc3ncc(CC(=O)O)c4ccccc34)cc2)cc1 [Example 225]
O=C(O)Cc1cnc(Cc2ccc(C(=O)NCCc3cccc(Cl)c3Cl)cc2)c2ccccc12 [Example 226]
O=C(O)Cc1cnc(Cc2ccc(C(=O)NCCc3cc(F)ccc3Cl)cc2)c2ccccc12 [Example 228]
O=C(O)Cc1cnc(Cc2ccc(C(=O)NCCc3ccc(F)c(F)c3)cc2)c2ccccc12 [Example 229]
O=C(O)Cc1cnc(Cc2ccc(C(=O)NCCc3csc4ccccc34)cc2)c2ccccc12 [Example 230]
Cc1cc(C)cc(CCNC(=O)c2ccc(Cc3ncc(CC(=O)O)c4ccccc34)cc2)c1 [Example 231]
COc1ccc(CCNC(=O)c2ccc(Cc3ncc(CC(=O)O)c4ccccc34)cc2)cc1F [Example 232]
O=C(O)Cc1cnc(Cc2ccc(C(=O)NCCc3ccc(F)cc3Cl)cc2)c2ccccc12 [Example 233]
O=C(O)Cc1cnc(Cc2ccc(C(=O)NCCc3cc4cc(Cl)ccc4[nH]3)cc2)c2ccccc12 [Example 234]
O=C(O)Cc1cnc(Cc2ccc(C(=O)NCCc3cc4cc(F)ccc4[nH]3)cc2)c2ccccc12 [Example 235]
COc1ccc2[nH]c(CCNC(=O)c3ccc(Cc4ncc(CC(=O)O)c5ccccc45)cc3)cc2c1 [Example 236]
O=C(O)Cc1cnc(Cc2ccc(C(=O)NCCc3ccc(C4CCCCC4)cc3)cc2)c2ccccc12 [Example 237]
CCCCCCc1ccc(CCNC(=O)c2ccc(Cc3ncc(CC(=O)O)c4ccccc34)cc2)cc1 [Example 238]
O=C(O)Cc1cnc(Cc2ccc(C(=O)NCCC34CC5CC(CC(C5)C3)C4)cc2)c2ccccc12 [Example 240]
CCCOc1ccc(CCNC(=O)c2ccc(Cc3ncc(CC(=O)O)c4ccccc34)cc2)cc1 [Example 241]
Cc1ccc2sc(CCNC(=O)c3ccc(Cc4ncc(CC(=O)O)c5ccccc45)cc3)cc2c1 [Example 242]
O=C(O)Cc1cnc(Cc2ccc(C(=O)NCCc3ccccc3Oc3ccccc3)cc2)c2ccccc12 [Example 243]
O=C(O)Cc1cnc(Cc2ccc(C(=O)NCCc3cccc(Cl)c3F)cc2)c2ccccc12 [Example 244]
Cc1cc(CCNC(=O)c2ccc(Cc3ncc(CC(=O)O)c4ccccc34)cc2)ccc1Cl [Example 245]
O=C(O)Cc1cnc(Cc2ccc(C(=O)NCCc3cc4ccccc4o3)cc2)c2ccccc12 [Example 249]
O=C(O)Cc1cnc(Cc2ccc(C(=O)NCCc3nc4ccccc4s3)cc2)c2ccccc12 [Example 250]
O=C(O)Cc1cnc(Cc2ccc(C(=O)NCCc3ccc(Cl)cc3)cc2)c2ccc(F)cc12 [Example 253, [1-(4-{[2-(4-chlorophenyl)ethyl]carbamoyl}benzyl)-6-fluoroisoquinoline-4-yl]acetic acid]

pIC50, ≤ 6.00:
CS(=O)(=O)c1ccc(CCNC(=O)c2ccc(Cc3ncc(CC(=O)O)c4ccccc34)cc2)cc1 [Example 207]
COc1cc(CCNC(=O)c2ccc(Cc3ncc(CC(=O)O)c4ccccc34)cc2)cc(OC)c1O [Example 209]
O=C(O)Cc1cnc(Cc2ccc(C(=O)NCCC3CCOCC3)cc2)c2ccccc12 [Example 214]
CNC(=O)c1ccc(Cc2ncc(CC(=O)O)c3ccccc23)cc1 [Example 220]
O=C(O)Cc1cnc(Cc2ccc(C(=O)NCCc3cn4ccccc4n3)cc2)c2ccccc12 [Example 227]
O=C(O)Cc1cnc(Cc2ccccc2OCc2ccc(Cl)cc2)c2ccccc12 [Example 252, (1-{2-[(4-chlorobenzyl)oxy]benzyl}isoquinolin-4-yl)acetic acid]
CC(C)(C(=O)O)c1cnc(C(=O)c2ccc(C(=O)NCCc3ccc(Cl)cc3)cc2)c2ccccc12 [Example 255, 2-{1-[(4-{[2-(4-chlorophenyl)ethyl]carbamoyl}phenyl)carbonyl]isoquinolin-4-yl}-2-methylpropanoic acid]
NC(=O)Cc1cnc(Cc2ccc(C(=O)NCCc3ccc(Cl)cc3)cc2)c2ccccc12 [Example 256, 4-{[4-(2-amino-2-oxoethyl)isoquinolin-1-yl]methyl}-N-[2-(4-chlorophenyl)ethyl]benzamide]
O=C(NCCc1ccc(Cl)cc1)c1ccc(Cc2ncc(Cc3nnn[nH]3)c3ccccc23)cc1 [Example 257, N-[2-(4-chlorophenyl)ethyl]-4-{[4-(1H-tetrazol-5-ylmethyl)isoquinolin-1-yl]methyl}benzamide]
O=C(Cc1cnc(Cc2ccc(C(=O)NCCc3ccc(Cl)cc3)cc2)c2ccccc12)NO [Example 258, N-[2-(4-chlorophenyl)ethyl]-4-({4-[2-(hydroxyamino)-2-oxoethyl]isoquinolin-1-yl}methyl)benzamide]
O=C(O)Cc1cnc(Oc2ccc(C(=O)NCCc3ccc(Cl)cc3)cc2)c2ccccc12 [Example 261, [1-(4-{[2-(4-chlorophenyl)ethyl]carbamoyl}phenoxy)isoquinolin-4-yl]acetic acid]

pIC50, 6.30 to 7.30:
CN(C)c1ccc(CCNC(=O)c2ccc(Cc3ncc(CC(=O)O)c4ccccc34)cc2)cc1 [Example 206]
COc1cc(CCNC(=O)c2ccc(Cc3ncc(CC(=O)O)c4ccccc34)cc2)ccc1C [Example 211]
O=C(O)Cc1cnc(Cc2ccc(C(=O)NCCc3cc(F)cc(F)c3)cc2)c2ccccc12 [Example 212]
Cc1ccc(F)cc1CCNC(=O)c1ccc(Cc2ncc(CC(=O)O)c3ccccc23)cc1 [Example 213]
O=C(O)Cc1cnc(Cc2ccc(C(=O)NCCc3cc(F)cc(C(F)(F)F)c3)cc2)c2ccccc12 [Example 215]
O=C(O)Cc1cnc(Cc2ccc(C(=O)NCCc3cc(F)cc(Cl)c3)cc2)c2ccccc12 [Example 216]
O=C(O)Cc1cnc(Cc2ccc(C(=O)NCCc3cc(Cl)cc(Cl)c3)cc2)c2ccccc12 [Example 219]
N#Cc1ccc(CCNC(=O)c2ccc(Cc3ncc(CC(=O)O)c4ccccc34)cc2)cc1 [Example 223]
O=C(O)Cc1cnc(Cc2ccc(C(=O)NCCc3cc(Cl)ccc3Cl)cc2)c2ccccc12 [Example 224]
O=C(O)Cc1cnc(Cc2ccc(C(=O)NCCC3CC3)cc2)c2ccccc12 [Example 239]
O=C(O)Cc1cnc(Cc2ccc(C(=O)NCC3(c4ccc(Cl)cc4)CC3)cc2)c2ccccc12 [Example 246]
O=C(O)Cc1cnc(Cc2ccc(C(=O)NCCNC(=O)c3ccc(Cl)cc3)cc2)c2ccccc12 [Example 247]
O=C(O)Cc1cnc(Cc2ccc(C(=O)NCCc3nc4ccccc4[nH]3)cc2)c2ccccc12 [Example 248]
CC(C)(CNC(=O)c1ccc(Cc2ncc(CC(=O)O)c3ccccc23)cc1)c1ccc(Cl)cc1 [Example 251]
COc1cc2c(CC(=O)O)cnc(C(=O)c3ccc(C(=O)NCCc4ccc(Cl)cc4)cc3)c2cc1OC [Example 259, {1-[(4-{[2-(4-chlorophenyl)ethyl]carbamoyl}phenyl)carbonyl]-6,7-dimethoxyisoquinolin-4-yl}acetic acid]
COc1ccc2c(C(=O)c3ccc(C(=O)NCCc4ccc(Cl)cc4)cc3)ncc(CC(=O)O)c2c1 [Example 260, {1-[(4-{[2-(4-chlorophenyl)ethyl]carbamoyl}phenyl)carbonyl]-6-methoxyisoquinolin-4-yl}acetic acid]

pIC50, 6.00 to 6.30:
CC(C(=O)O)c1cnc(Cc2ccc(C(=O)NCCc3ccc(Cl)cc3)cc2)c2ccccc12 (stereo not drawn) [Example 254, 2-[1-(4-{[2-(4-chlorophenyl)ethyl]carbamoyl}benzyl)isoquinolin-4-yl]propanoic acid]
